Laboratory results: patent publication US10280159B2 (AbbVie Deutschland GmbH & Co. KG, priority 2015, dated 2019)

How the values were obtained:
Type in all cases: cell-based
human S1PR5 = target: T1, human S1PR5 (Homo sapiens, UniProt Q9H228); experiment: Intracellular Ca2+ release (FLIPR) agonist potency, S1P5; settings: recombinant CHO-K1 cells expressing human S1PR5, aequorin, Gq/i5; Calcium 5 FLIPR; read-out: S1P5 EC50 range
T1 construct: host or cells: CHO-K1
Procedure: (§1) Agonistic activity was measured using the method described below.
(§2) Intracellular Ca^2+ Release
(§3) Agonist potency and intrinsic activity was assessed by measurement of intracellular Ca^2+ release. Recombinant CHO-K1 cells (Euroscreen, Brussels, Belgium) expressing human S1PR5, S1PR1, S1PR3 or S1PR4 receptors, aequorin, and GTP binding protein Gq/i5 were cultured using a medium containing nutrient mixture F-12 Ham (Sigma-Aldrich) with 10% FBS, and 100 μg/mL gentamicin and equilibrated at 5% CO2.
(§4) Phospho-fingolimod was used as positive control. Antagonists were pre-incubated for 10 min with cells before addition of the agonist (phospho-fingolimod at EC80). Measurements were performed using a fluorometric imaging plate reader FLIPR®tetra (Molecular Devices). Agonist at the human S1P receptors were characterized by deducing EC50 (potency) values from a nonlinear fit to the measured fluorescence raw data after normalization to the reference agonist (phospho-fingolimod) curve.

human S1PR1 = target: T2, human S1PR1 (Homo sapiens, UniProt P21453); experiment: Intracellular Ca2+ release (FLIPR) agonist potency, S1P1; settings: recombinant CHO-K1 cells expressing human S1PR1, aequorin, Gq/i5; Calcium 5 FLIPR; read-out: S1P1 EC50
T2 construct: host or cells: CHO-K1
T2 sequence (P21453 whole entry): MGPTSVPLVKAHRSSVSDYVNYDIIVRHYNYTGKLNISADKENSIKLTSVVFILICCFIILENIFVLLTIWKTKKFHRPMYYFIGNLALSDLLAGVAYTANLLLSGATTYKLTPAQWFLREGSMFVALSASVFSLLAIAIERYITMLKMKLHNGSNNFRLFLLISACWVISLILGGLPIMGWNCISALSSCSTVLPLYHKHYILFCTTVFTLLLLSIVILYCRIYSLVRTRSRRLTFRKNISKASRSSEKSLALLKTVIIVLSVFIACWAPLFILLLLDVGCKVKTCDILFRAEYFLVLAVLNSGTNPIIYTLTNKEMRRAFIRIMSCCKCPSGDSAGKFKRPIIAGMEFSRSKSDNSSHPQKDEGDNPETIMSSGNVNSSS
Procedure: as §1, §2, §3, §4

human S1PR4 = target: T3, human S1PR4 (Homo sapiens, UniProt O95977); experiment: Intracellular Ca2+ release (FLIPR) agonist potency, S1P4; settings: recombinant CHO-K1 cells expressing human S1PR4, aequorin, Gq/i5; Calcium 5 FLIPR; read-out: S1P4 EC50
T3 construct: host or cells: CHO-K1
T3 sequence (O95977 1-384): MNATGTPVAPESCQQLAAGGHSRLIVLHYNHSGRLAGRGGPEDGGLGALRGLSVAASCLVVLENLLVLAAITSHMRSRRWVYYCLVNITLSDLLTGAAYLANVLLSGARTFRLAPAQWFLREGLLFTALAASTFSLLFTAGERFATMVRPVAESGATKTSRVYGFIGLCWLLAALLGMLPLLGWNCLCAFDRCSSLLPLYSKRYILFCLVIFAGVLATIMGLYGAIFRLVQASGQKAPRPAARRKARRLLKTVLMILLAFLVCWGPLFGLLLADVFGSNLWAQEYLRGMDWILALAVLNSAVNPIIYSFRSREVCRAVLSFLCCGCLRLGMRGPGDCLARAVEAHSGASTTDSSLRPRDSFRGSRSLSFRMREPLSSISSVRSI
Procedure: as §1, §2, §3, §4

T1 sequence (Q9H228 whole entry): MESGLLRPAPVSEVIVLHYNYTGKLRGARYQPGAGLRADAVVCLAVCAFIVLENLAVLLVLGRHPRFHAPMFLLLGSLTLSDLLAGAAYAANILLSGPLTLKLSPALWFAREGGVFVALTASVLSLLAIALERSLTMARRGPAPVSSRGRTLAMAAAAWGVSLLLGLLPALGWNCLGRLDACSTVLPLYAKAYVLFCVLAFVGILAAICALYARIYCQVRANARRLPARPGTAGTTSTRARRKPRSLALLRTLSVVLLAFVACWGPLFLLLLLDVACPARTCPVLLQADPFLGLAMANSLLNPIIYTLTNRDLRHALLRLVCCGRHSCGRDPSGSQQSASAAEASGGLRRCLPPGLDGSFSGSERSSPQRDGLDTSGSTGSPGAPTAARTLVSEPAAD

Row | Structure (SMILES) | EC50 (human S1PR5) | EC50 (human S1PR1) | EC50 (human S1PR4)
1 | Cc1ccc(COc2ccc3c(c2)OCC(N2CC(C(=O)O)C2)C3)c(F)c1 (stereo not drawn) [Compound 88, 1-[7-[(2-fluoro-4-methyl-phenyl)methoxy]chroman-3-yl]azetidine-3-carboxylic acid] | 1000 to 10000 nM | > 1000 nM | > 1000 nM
2 | N#Cc1ccc(COc2ccc3c(c2)OCC(N2CC(C(=O)O)C2)C3)c(F)c1 (stereo not drawn) [Compound 89, 1-[7-[(4-cyano-2-fluoro-phenyl)methoxy]chroman-3-yl]azetidine-3-carboxylic acid] | 1000 to 10000 nM | > 1000 nM | > 1000 nM
3 | COc1cc(COc2ccc3c(c2)OCC(N2CC(C(=O)O)C2)C3)ccc1F (stereo not drawn) [Compound 92, 1-[7-[(4-fluoro-3-methoxy-phenyl)methoxy]chroman-3-yl]azetidine-3-carboxylic acid] | 1000 to 10000 nM | > 1000 nM | > 1000 nM
4 | O=C(O)C1CN(C2COc3cc(OCCOc4ccc(F)cc4)ccc3C2)C1 (stereo not drawn) [Compound 93, 1-[7-[2-(4-fluorophenoxy)ethoxy]chroman-3-yl]azetidine-3-carboxylic acid] | 1000 to 10000 nM | > 1000 nM | > 1000 nM
5 | O=C(O)C1CN(C2COc3cc(OCc4cccc(C(F)(F)F)c4F)ccc3C2)C1 (stereo not drawn) [Compound 94, 1-[7-[[2-fluoro-3-(trifluoromethyl)phenyl]methoxy]chroman-3-yl]azetidine-3-carboxylic acid] | 1000 to 10000 nM | > 1000 nM | > 1000 nM
6 | COc1ccc(COc2ccc3c(c2)OCC(N2CC(C(=O)O)C2)C3)cc1F (stereo not drawn) [Compound 95, 1-[7-[(3-fluoro-4-methoxy-phenyl)methoxy]chroman-3-yl]azetidine-3-carboxylic acid] | 1000 to 10000 nM | > 1000 nM | > 1000 nM
7 | O=C(O)C1CN(C2COc3cc(OCCOc4cccc(F)c4)ccc3C2)C1 (stereo not drawn) [Compound 97, 1-[7-[2-(3-fluorophenoxy)ethoxy]chroman-3-yl]azetidine-3-carboxylic acid] | 1000 to 10000 nM | > 1000 nM | > 1000 nM
8 | COc1ccc(F)c(COc2ccc3c(c2)OCC(N2CC(C(=O)O)C2)C3)c1 (stereo not drawn) [Compound 98, 1-[7-[(2-fluoro-5-methoxy-phenyl)methoxy]chroman-3-yl]azetidine-3-carboxylic acid] | 1000 to 10000 nM | > 1000 nM | > 1000 nM
9 | O=C(O)C1CN(C2COc3cc(OCCCc4cccc(F)c4)ccc3C2)C1 (stereo not drawn) [Compound 99, 1-[7-[3-(3-fluorophenyl)propoxy]chroman-3-yl]azetidine-3-carboxylic acid] | 1000 to 10000 nM | > 1000 nM | > 1000 nM
10 | COc1cc(F)cc(COc2ccc3c(c2)OCC(N2CC(C(=O)O)C2)C3)c1 (stereo not drawn) [Compound 100, 1-[7-[(3-fluoro-5-methoxy-phenyl)methoxy]chroman-3-yl]azetidine-3-carboxylic acid] | 1000 to 10000 nM | > 1000 nM | > 1000 nM
11 | COc1cccc(F)c1COc1ccc2c(c1)OCC(N1CC(C(=O)O)C1)C2 (stereo not drawn) [Compound 101, 1-[7-[(2-fluoro-6-methoxy-phenyl)methoxy]chroman-3-yl]azetidine-3-carboxylic acid] | 1000 to 10000 nM | > 1000 nM | > 1000 nM
12 | O=C(O)C1CN(C2COc3cc(OCCCCOc4cccc(F)c4)ccc3C2)C1 (stereo not drawn) [Compound 102, 1-[7-[4-(3-fluorophenoxy)butoxy]chroman-3-yl]azetidine-3-carboxylic acid] | 1000 to 10000 nM | > 1000 nM | > 1000 nM
13 | O=C(O)C1CN(C2COc3cc(OCc4ccc(C(F)(F)F)c(F)c4)ccc3C2)C1 (stereo not drawn) [Compound 103, 1-[7-[[3-fluoro-4-(trifluoromethyl)phenyl]methoxy]chroman-3-yl]azetidine-3-carboxylic acid] | 1000 to 10000 nM | > 1000 nM | > 1000 nM
14 | Cc1cccc(COc2ccc3c(c2)OCC(N2CC(C(=O)O)C2)C3)c1F (stereo not drawn) [Compound 105, 1-[7-[(2-fluoro-3-methyl-phenyl)methoxy]chroman-3-yl]azetidine-3-carboxylic acid] | 1000 to 10000 nM | > 1000 nM | > 1000 nM
15 | O=C(O)C1CN(C2COc3cc(OCc4ccc(C(F)(F)F)cc4F)ccc3C2)C1 (stereo not drawn) [Compound 106, 1-[7-[[2-fluoro-4-(trifluoromethyl)phenyl]methoxy]chroman-3-yl]azetidine-3-carboxylic acid] | 1000 to 10000 nM | > 1000 nM | > 1000 nM
16 | CC(Oc1ccc2c(c1)OCC(N1CC(C(=O)O)C1)C2)c1ccccc1F (stereo not drawn) [Compound 107, 1-[7-[1-(2-fluorophenyl)ethoxy]chroman-3-yl]azetidine-3-carboxylic acid] | 1000 to 10000 nM | > 1000 nM | > 1000 nM
17 | O=C(O)C1CN(C2COc3cc(OCc4ccc5cc(F)ccc5n4)ccc3C2)C1 (stereo not drawn) [Compound 108, 1-[7-[(6-fluoro-2-quinolyl)methoxy]chroman-3-yl]azetidine-3-carboxylic acid] | 1000 to 10000 nM | > 1000 nM | > 1000 nM

The next lines start with the values.

Row | EC50 (human S1PR5) | EC50 (human S1PR1) | EC50 (human S1PR4) | Structure (SMILES)
18 | 100 to 1000 nM | > 1000 nM | > 1000 nM | Cc1cccc(Cl)c1COc1ccc2c(c1)OCC(N1CC(C(=O)O)C1)C2 (stereo not drawn) [Compound 71, 1-(7-((2-chloro-6-methylbenzyl)oxy)chroman-3-yl)azetidine-3-carboxylic acid]
19 | < 10 nM | > 1000 nM | < 1000 nM | CCc1cccc(F)c1COc1ccc2c(c1)OCC(N(C)CC(=O)O)C2 (stereo not drawn) [Compound 72, 2-((7-((2-ethyl-6-fluorobenzyl)oxy)chroman-3-yl)(methyl)amino)acetic acid]
20 | < 10 nM | < 1000 nM | < 1000 nM | CCc1cccc(Cl)c1COc1ccc2c(c1)CCC(NCC1(C(=O)O)CC1)C2 (stereo not drawn) [Compound 76, 1-(((6-((2-chloro-6-ethylbenzyl)oxy)-1,2,3,4-tetrahydronaphthalen-2-yl)amino)methyl)cyclopropanecarboxylic acid]
21 | 1000 to 10000 nM | > 1000 nM | > 1000 nM | Cc1cc(COc2ccc3c(c2)OCC(N2CC(C(=O)O)C2)C3)ccc1F (stereo not drawn) [Compound 84, 1-[7-[(4-fluoro-3-methyl-phenyl)methoxy]chroman-3-yl]azetidine-3-carboxylic acid]
22 | 1000 to 10000 nM | > 1000 nM | > 1000 nM | O=C(O)C1CN(C2COc3cc(OCc4ccc(F)c(C(F)(F)F)c4)ccc3C2)C1 (stereo not drawn) [Compound 85, 1-[7-[[4-fluoro-3-(trifluoromethyl)phenyl]methoxy]chroman-3-yl]azetidine-3-carboxylic acid]
23 | 1000 to 10000 nM | > 1000 nM | > 1000 nM | COc1cccc(COc2ccc3c(c2)OCC(N2CC(C(=O)O)C2)C3)c1F (stereo not drawn) [Compound 86, 1-[7-[(2-fluoro-3-methoxy-phenyl)methoxy]chroman-3-yl]azetidine-3-carboxylic acid]
24 | 1000 to 10000 nM | > 1000 nM | > 1000 nM | Cc1cc(F)cc(COc2ccc3c(c2)OCC(N2CC(C(=O)O)C2)C3)c1 (stereo not drawn) [Compound 87, 1-[7-[(3-fluoro-5-methyl-phenyl)methoxy]chroman-3-yl]azetidine-3-carboxylic acid]
25 | 10 to 100 nM | > 1000 nM | < 1000 nM | O=C(O)C1CN(C2COc3cc(OCc4cc(F)cc(C(F)(F)F)c4)ccc3C2)C1 (stereo not drawn) [Compound 90, 1-[7-[[3-fluoro-5-(trifluoromethyl)phenyl]methoxy]chroman-3-yl]azetidine-3-carboxylic acid]
26 | 100 to 1000 nM | > 1000 nM | > 1000 nM | O=C(O)C1CN(C2COc3cc(OCc4cc(F)ccc4C(F)(F)F)ccc3C2)C1 (stereo not drawn) [Compound 91, 1-[7-[[5-fluoro-2-(trifluoromethyl)phenyl]methoxy]chroman-3-yl]azetidine-3-carboxylic acid]
27 | 100 to 1000 nM | > 1000 nM | > 1000 nM | Cc1c(F)cccc1COc1ccc2c(c1)OCC(N1CC(C(=O)O)C1)C2 (stereo not drawn) [Compound 96, 1-[7-[(3-fluoro-2-methyl-phenyl)methoxy]chroman-3-yl]azetidine-3-carboxylic acid]
28 | 100 to 1000 nM | > 1000 nM | > 1000 nM | O=C(O)C1CN(C2COc3cc(OCc4cc(OC(F)(F)F)ccc4F)ccc3C2)C1 (stereo not drawn) [Compound 104, 1-[7-[[2-fluoro-5-(trifluoromethoxy)phenyl]methoxy]chroman-3-yl]azetidine-3-carboxylic acid]
29 | 100 to 1000 nM | > 1000 nM | > 1000 nM | O=C(O)C1CN(C2COc3cc(OCC4CCCCC4)ccc3C2)C1 (stereo not drawn) [Compound 109, 1-[7-(cyclohexylmethoxy)chroman-3-yl]azetidine-3-carboxylic acid]
